Results as given in US12281079B2, “Quinoline derivatives, processes for their preparation and uses thereof for the treatment of cancer” (Lead Discovery Center GmbH, priority 2019, dated 2025).

Tests used:
[1] = biological target: mitochondrial RNA polymerase (POLRMT) (Mus musculus, UniProt Q8BKF1); assay: Homogeneous TR-FRET assay for mitochondrial transcription activity; type: biochemical; conditions: homogeneous TR-FRET assay according to Example 4
How it was run: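 Read-out is TR-FRET (ex 340, em 665 nm) from two adjacent labelled DNA probes annealing to the 407 bp transcript after EDTA/700 mM NaCl stop. Reaction: murine POLRMT, TFAM, TFB2M and LSP plasmid template, compound 10 μM or serial dilution, 10 min rt preincubation, 500 μM each nucleotide, 2 h rt.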

[2] = test system: mitochondrial transcription (7S RNA) in HeLa cells; assay: Quantitative real time-PCR assay of inhibition of mitochondrial transcription (7S RNA) in HeLa cells; type: cell-based; conditions: Homo sapiens, 4 h compound incubation, according to Example 5, read-out: cellular qPCR assay
How it was run: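 HeLa cells were exposed to compound dilution series or DMSO for 4 h, then RNA was extracted, normalized and reverse-transcribed. TaqMan qRT-PCR measured short-lived 7S RNA, with POLRMT as nuclear-transcription readout and TBP as housekeeping gene. Biological triplicates were analyzed by ΔΔCt and reported as Rq % (2−ΔΔCt).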

mitochondrial RNA polymerase (POLRMT), sequence (Q8BKF1 42-1207): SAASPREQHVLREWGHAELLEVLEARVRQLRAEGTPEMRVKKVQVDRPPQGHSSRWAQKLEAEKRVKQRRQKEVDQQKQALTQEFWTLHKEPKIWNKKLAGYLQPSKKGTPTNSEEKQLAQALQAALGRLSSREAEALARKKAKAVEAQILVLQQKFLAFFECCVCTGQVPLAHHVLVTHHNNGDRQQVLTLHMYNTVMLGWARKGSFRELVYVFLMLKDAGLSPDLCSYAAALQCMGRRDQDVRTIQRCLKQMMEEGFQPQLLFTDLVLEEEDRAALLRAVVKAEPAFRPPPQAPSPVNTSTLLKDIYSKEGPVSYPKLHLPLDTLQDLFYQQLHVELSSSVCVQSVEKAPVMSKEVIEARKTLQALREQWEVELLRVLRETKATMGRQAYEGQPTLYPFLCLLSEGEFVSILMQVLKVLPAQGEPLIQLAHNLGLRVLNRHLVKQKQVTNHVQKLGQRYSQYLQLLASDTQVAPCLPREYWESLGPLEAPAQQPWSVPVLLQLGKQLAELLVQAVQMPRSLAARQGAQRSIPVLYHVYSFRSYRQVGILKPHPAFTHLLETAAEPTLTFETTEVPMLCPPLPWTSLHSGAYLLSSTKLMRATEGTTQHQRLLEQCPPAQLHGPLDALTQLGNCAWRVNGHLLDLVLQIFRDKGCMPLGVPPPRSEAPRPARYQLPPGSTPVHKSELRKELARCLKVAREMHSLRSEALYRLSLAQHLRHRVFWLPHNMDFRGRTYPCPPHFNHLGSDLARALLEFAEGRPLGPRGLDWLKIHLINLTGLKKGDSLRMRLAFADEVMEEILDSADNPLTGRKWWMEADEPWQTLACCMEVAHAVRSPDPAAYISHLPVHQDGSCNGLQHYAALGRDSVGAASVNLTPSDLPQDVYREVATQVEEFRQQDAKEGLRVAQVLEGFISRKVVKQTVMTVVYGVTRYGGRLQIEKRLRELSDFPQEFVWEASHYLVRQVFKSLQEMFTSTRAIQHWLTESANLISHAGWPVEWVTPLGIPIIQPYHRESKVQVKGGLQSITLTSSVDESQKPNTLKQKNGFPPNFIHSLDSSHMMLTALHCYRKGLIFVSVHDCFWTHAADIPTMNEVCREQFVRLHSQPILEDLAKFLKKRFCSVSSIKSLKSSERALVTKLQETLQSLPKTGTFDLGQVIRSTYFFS

IC50 [1] [nM] | IC50 [2] [nM] | SMILES
1000 to 10000 | 500 to 5000 | Cc1cc(-c2ccc(F)cc2Cl)c2ccc(O[C@H](C)C(=O)N3CCC[C@H](CC(=O)O)C3)cc2n1 [Compound 101, 2-[(3R)-1-[(2R)-2-[[4-(2-chloro-4-fluoro-phenyl)-2-methyl-7-quinolyl]oxy]propanoyl]-3-piperidyl]acetic acid]
1000 to 10000 | 50 to 500 | C[C@@H](Oc1ccc2c(-c3ccccc3Cl)cc(Cl)nc2c1)C(=O)N1CCNCC1 [Compound 104, (2R)-2-[[2-chloro-4-(2-chlorophenyl)-7-quinolyl]oxy]-1-piperazin-1-yl-propan-1-one]
20 to 100 | 10 to 50 | C[C@@H](Oc1ccc2c(-c3ccccc3Cl)ccnc2c1)C(=O)N1CCC(CC(=O)O)CC1 [Compound 112, 2-[1-[(2R)-2-[[4-(2-chlorophenyl)-7-quinolyl]oxy]propanoyl]-4-piperidyl]acetic acid]
100 to 1000 | 50 to 500 | Cc1cc(-c2c(C)cccc2C)c2ccc(O[C@H](C)C(=O)N3CCC[C@H](S(N)(=O)=O)C3)cc2n1 [Compound 113, (3S)-1-[(2R)-2-[[4-(2,6-dimethylphenyl)-2-methyl-7-quinolyl]oxy]propanoyl]piperidine-3-sulfonamide]
100 to 1000 | 10 to 50 | Cc1cc(-c2c(C)cccc2C)c2ccc(O[C@H](C)C(=O)N3CCC[C@@H](S(N)(=O)=O)C3)cc2n1 [Compound 114, (3R)-1-[(2R)-2-[[4-(2,6-dimethylphenyl)-2-methyl-7-quinolyl]oxy]propanoyl]piperidine-3-sulfonamide]
1000 to 10000 | 50 to 500 | Cc1cc(-c2ccc(F)cc2Cl)c2ccc(O[C@H](C)C(=O)N3CCC[C@@H](S(N)(=O)=O)C3)cc2n1 [Compound 115, (3R)-1-[(2R)-2-[[4-(2-chloro-4-fluoro-phenyl)-2-methyl-7-quinolyl]oxy]propanoyl]piperidine-3-sulfonamide]
100 to 1000 | < 10 | C[C@@H](Oc1ccc2c(-c3ccc(F)cc3Cl)ccnc2c1)C(=O)N1CCC[C@H](S(N)(=O)=O)C1 [Compound 116, (3S)-1-[(2R)-2-[[4-(2-chloro-4-fluoro-phenyl)-7-quinolyl]oxy]propanoyl]piperidine-3-sulfonamide]
100 to 1000 | 10 to 50 | C[C@@H](Oc1ccc2c(-c3ccc(F)cc3Cl)ccnc2c1)C(=O)N1CCC[C@@H](S(N)(=O)=O)C1 [Compound 117, (3R)-1-[(2R)-2-[[4-(2-chloro-4-fluoro-phenyl)-7-quinolyl]oxy]propanoyl]piperidine-3-sulfonamide]
< 20 | 10 to 50 | C[C@@H](Oc1ccc2c(-c3ccccc3Cl)ccnc2c1)C(=O)N1CCC(CCC(=O)O)CC1 [Compound 118, 3-[1-[(2R)-2-[[4-(2-chlorophenyl)-7-quinolyl]oxy]propanoyl]-4-piperidyl]propanoic acid]
< 20 | 10 to 50 | C[C@@H](Oc1ccc2c(-c3c(Cl)cccc3Cl)ccnc2c1)C(=O)N1CCC[C@H](CC(=O)O)C1 [Compound 120, 2-[(3R)-1-[(2R)-2-[[4-(2,6-dichlorophenyl)-7-quinolyl]oxy]propanoyl]-3-piperidyl]acetic acid]
20 to 100 | 10 to 50 | CCc1ccccc1-c1ccnc2cc(O[C@H](C)C(=O)N3CCC[C@H](CC(=O)O)C3)ccc12 [Compound 121, 2-((R)-1-((R)-2-((4-(2-ethylphenyl)quinolin-7-yl)oxy)propanoyl)piperidin-3-yl)acetic acid]
100 to 1000 | 50 to 500 | Cc1cc(-c2c(C)cccc2C)c2ccc(O[C@H](C)C(=O)N3CCC[C@H](CC(=O)O)C3)cc2n1 [Compound 124, 2-[(3R)-1-[(2R)-2-[[4-(2,6-dimethylphenyl)-2-methyl-7-quinolyl]oxy]propanoyl]-3-piperidyl]acetic acid]
100 to 1000 | 10 to 50 | C[C@@H](Oc1ccc2c(-c3ccc(F)cc3Cl)ccnc2n1)C(=O)N1CCC[C@H](C(=O)O)C1 [Compound 126, (3S)-1-[(2R)-2-[[5-(2-chloro-4-fluoro-phenyl)-1,8-naphthyridin-2-yl]oxy]propanoyl]piperidine-3-carboxylic acid]
100 to 1000 | 50 to 500 | C[C@@H](Oc1ccc2c(-c3ccc(F)cc3Cl)ccnc2n1)C(=O)N1CCC[C@H](CC(=O)O)C1 [Compound 128, 2-[(3R)-1-[(2R)-2-[[5-(2-chloro-4-fluoro-phenyl)-1,8-naphthyridin-2-yl]oxy]propanoyl]-3-piperidyl]acetic acid]
< 20 | < 10 | C[C@@H](Oc1ccc2c(-c3c(Cl)cccc3Cl)ccnc2c1)C(=O)N1CCC[C@H](C(=O)O)C1 [Compound 129, (3S)-1-[(2R)-2-[[4-(2,6-dichlorophenyl)-7-quinolyl]oxy]propanoyl]piperidine-3-carboxylic acid]
100 to 1000 | 500 to 5000 | C[C@@H](Oc1ccc2c(-c3ccc(F)cc3Cl)ccnc2c1)C(=O)Nc1ccccn1 [Compound 130, (2R)-2-[[4-(2-chloro-4-fluoro-phenyl)-7-quinolyl]oxy]-N-(2-pyridyl)propanamide]
1000 to 10000 | 50 to 500 | CCNC(=O)[C@@H](C)Oc1ccc2c(-c3ccc(F)cc3Cl)ccnc2c1 [Compound 131]
< 20 | < 10 | C[C@@H](Oc1ccc2c(-c3c(Cl)cc(F)cc3Cl)ccnc2c1)C(=O)N1CCC[C@H](C(=O)O)C1 [Compound 132, (3S)-1-[(2R)-2-[[4-(2,6-dichloro-4-fluoro-phenyl)-7-quinolyl]oxy]propanoyl]piperidine-3-carboxylic acid]
100 to 1000 | 50 to 500 | Cc1cscc1-c1ccnc2cc(O[C@H](C)C(=O)N3CCC[C@H](CC(=O)O)C3)ccc12 [Compound 133, 2-[(3R)-1-[(2R)-2-[[4-(4-methyl-3-thienyl)-7-quinolyl]oxy]propanoyl]-3-piperidyl]acetic acid]
< 20 | < 10 | C[C@@H](Oc1ccc2c(-c3c(Cl)cc(F)cc3Cl)ccnc2c1)C(=O)N1CCC[C@](C)(C(=O)O)C1 [Compound 173, (3S)-1-[(2R)-2-[[4-(2,6-dichloro-4-fluoro-phenyl)-7-quinolyl]oxy]propanoyl]-3-methyl-piperidine-3-carboxylic acid]
< 20 | < 10 | Cc1cc(F)cc(C)c1-c1ccnc2cc(O[C@H](C)C(=O)N3CCC[C@@](C)(C(=O)O)C3)ccc12 [Compound 175, (3R)-1-[(2R)-2-[[4-(4-fluoro-2,6-dimethyl-phenyl)-7-quinolyl]oxy]propanoyl]-3-methyl-piperidine-3-carboxylic acid]
< 20 | 10 to 50 | Cc1cc(F)cc(C)c1-c1ccnc2cc(O[C@H](C)C(=O)N3CCCC[C@@H]3C)ccc12 [Compound 176, (2R)-2-[[4-(4-fluoro-2,6-dimethyl-phenyl)-7-quinolyl]oxy]-1-[(2S)-2-methyl-1-piperidyl]propan-1-one]
< 20 | 10 to 50 | Cc1cc(F)cc(C)c1-c1ccnc2cc(O[C@H](C)C(=O)N3CCOCC3)ccc12 [Compound 178, (2R)-2-[[4-(4-fluoro-2,6-dimethyl-phenyl)-7-quinolyl]oxy]-1-morpholino-propan-1-one]
< 20 | < 10 | Cc1cc(F)cc(C)c1-c1ccnc2cc(O[C@H](C)C(=O)N3CCC4(CC3)COC4)ccc12 [Compound 179, (2R)-2-[[4-(4-fluoro-2,6-dimethyl-phenyl)-7-quinolyl]oxy]-1-(2-oxa-7-azaspiro[3.5]nonan-7-yl)propan-1-one]
< 20 | < 10 | Cc1cc(F)cc(C)c1-c1ccnc2cc(O[C@H](C)C(=O)N3CCC4(CCNC4=O)CC3)ccc12 [Compound 181, 8-[(2R)-2-[[4-(4-fluoro-2,6-dimethyl-phenyl)-7-quinolyl]oxy]propanoyl]-2,8-diazaspiro[4.5]decan-1-one]
< 20 | < 10 | Cc1cc(F)cc(C)c1-c1ccnc2cc(O[C@H](C)C(=O)N3CCC[C@H](CC(=O)O)C3)ccc12 [Compound 183, 2-[(3R)-1-[(2R)-2-[[4-(4-fluoro-2,6-dimethyl-phenyl)-7-quinolyl]oxy]propanoyl]-3-piperidyl]acetic acid]
< 20 | < 10 | Cc1cc(F)cc(C)c1-c1ccnc2cc(O[C@H](C)C(=O)N3CCC[C@](C)(C(=O)O)C3)ccc12 [Compound 184, (3S)-1-[(2R)-2-[[4-(4-fluoro-2,6-dimethyl-phenyl)-7-quinolyl]oxy]propanoyl]-3-methyl-piperidine-3-carboxylic acid]
< 20 | < 10 | CC(=O)N(O)[C@H]1CCCN(C(=O)[C@@H](C)Oc2ccc3c(-c4c(C)cc(F)cc4C)ccnc3c2)C1 [Compound 185, N-[(3S)-1-[(2R)-2-[[4-(4-fluoro-2,6-dimethyl-phenyl)-7-quinolyl]oxy]propanoyl]-3-piperidyl]-N-hydroxy-acetamide]
< 20 | < 10 | Cc1cc(F)cc(C)c1-c1ccnc2cc(O[C@H](C)C(=O)N3CCCC[C@H]3C)ccc12 [Compound 187, (2R)-2-[[4-(4-fluoro-2,6-dimethyl-phenyl)-7-quinolyl]oxy]-1-[(2R)-2-methyl-1-piperidyl]propan-1-one]
< 20 | 10 to 50 | C[C@@H](Oc1ccc2c(-c3c(Cl)cc(F)cc3Cl)ccnc2c1)C(=O)N1CCC[C@@](C)(C(=O)O)C1 [Compound 188, (3R)-1-[(2R)-2-[[4-(2,6-dichloro-4-fluoro-phenyl)-7-quinolyl]oxy]propanoyl]-3-methyl-piperidine-3-carboxylic acid]
